In publication PMC7471899 (2020):
Values joined by “and” are separate entries in the source; they are usually repeats but may differ in a detail not shown here. Identical values can stand only once.

What was measured:
[1] = tested on: 22_TERRA_2Ap19 (RNA, G4, 2-aminopurine at 19) AGGGUUAGGGUUAGGGUUAGGG; experiment: 2-aminopurine fluorescence quenching; details: 10 mM KCl + 10 mM potassium phosphate; pH 7.0, room temperature; 2.5 μM RNA; 2.5 or 5 μM compound
[2] = tested on: 22_TERRA_2Ap7 (RNA, G4, 2-aminopurine at 7) AGGGUUAGGGUUAGGGUUAGGG; experiment: 2-aminopurine fluorescence quenching; details: 10 mM KCl + 10 mM potassium phosphate; pH 7.0, room temperature; 2.5 μM RNA; 2.5 or 5 μM compound
[3] = tested on: 22_TERRA (RNA, G4) AGGGUUAGGGUUAGGGUUAGGG; experiment: fluorescent intercalator displacement (FID); details: 10 mM KCl + 10 mM potassium phosphate (20 mM K+); pH 7, room temperature; 0.25 µM RNA; 0.5 µM thiazole orange displaced
[4] = tested on: 22_TERRA_2Ap13 (RNA, G4, 2-aminopurine at 13) AGGGUUAGGGUUAGGGUUAGGG; experiment: 2-aminopurine fluorescence quenching; details: 10 mM KCl + 10 mM potassium phosphate; pH 7.0, room temperature; 2.5 μM RNA; 2.5 or 5 μM compound
[5] = tested on: 26_ds (RNA, hairpin) CAAUCGGAUCGAAUUCGAUCCGAUUG; experiment: fluorescent intercalator displacement (FID); details: 10 mM KCl + 10 mM potassium phosphate (20 mM K+); pH 7, room temperature; 0.25 µM RNA; 0.5 µM thiazole orange displaced

binding [1]	binding [2]	DC50 [3]	binding [4]	DC50 [5]	Compound
yes	yes	0.41 ± 0.04 µM and 0.27 ± 0.02 µM	yes	1.47 ± 0.09 µM and 1.58 ± 0.10 µM	C(=NC(COCc1cccc(COCC(N=Cc2ccccn2)c2ccccc2)c1)c1ccccc1)c1ccccn1.C(=NC(COCc1cccc(COCC(N=Cc2ccccn2)c2ccccc2)c1)c1ccccc1)c1ccccn1.C(=NC(COCc1cccc(COCC(N=Cc2ccccn2)c2ccccc2)c1)c1ccccc1)c1ccccn1.[Fe+2].[Fe+2] (stereo not shown) [5b]
		0.47 ± 0.05 µM and 0.60 ± 0.06 µM		0.72 ± 0.07 µM and 0.80 ± 0.05 µM	C(=NC(COCc1ccc(Cc2ccc(COCC(N=Cc3ccccn3)c3ccccc3)cc2)cc1)c1ccccc1)c1ccccn1.C(=NC(COCc1ccc(Cc2ccc(COCC(N=Cc3ccccn3)c3ccccc3)cc2)cc1)c1ccccc1)c1ccccn1.C(=NC(COCc1ccc(Cc2ccc(COCC(N=Cc3ccccn3)c3ccccc3)cc2)cc1)c1ccccc1)c1ccccn1.[Fe+2].[Fe+2] (stereo not shown) [5f]
		0.59 ± 0.04 µM and 0.69 ± 0.06 µM		0.83 ± 0.04 µM and 0.90 ± 0.07 µM	C(=NC(COCc1ccc(-c2ccc(COCC(N=Cc3ccccn3)c3ccccc3)cc2)cc1)c1ccccc1)c1ccccn1.C(=NC(COCc1ccc(-c2ccc(COCC(N=Cc3ccccn3)c3ccccc3)cc2)cc1)c1ccccc1)c1ccccn1.C(=NC(COCc1ccc(-c2ccc(COCC(N=Cc3ccccn3)c3ccccc3)cc2)cc1)c1ccccc1)c1ccccn1.[Fe+2].[Fe+2] (stereo not shown) [5c]
		0.47 ± 0.05 µM and 0.57 ± 0.06 µM		0.72 ± 0.02 µM and 0.95 ± 0.08 µM	C(=NC(COCc1ccc(COCC(N=Cc2ccccn2)c2ccccc2)cc1)c1ccccc1)c1ccccn1.C(=NC(COCc1ccc(COCC(N=Cc2ccccn2)c2ccccc2)cc1)c1ccccc1)c1ccccn1.C(=NC(COCc1ccc(COCC(N=Cc2ccccn2)c2ccccc2)cc1)c1ccccc1)c1ccccn1.[Fe+2].[Fe+2] (stereo not shown) [5a]
		0.59 ± 0.01 µM and 0.61 ± 0.02 µM		0.76 ± 0.03 µM and 0.82 ± 0.03 µM	C(=NC(COCc1ccc(Oc2ccc(COCC(N=Cc3ccccn3)c3ccccc3)cc2)cc1)c1ccccc1)c1ccccn1.C(=NC(COCc1ccc(Oc2ccc(COCC(N=Cc3ccccn3)c3ccccc3)cc2)cc1)c1ccccc1)c1ccccn1.C(=NC(COCc1ccc(Oc2ccc(COCC(N=Cc3ccccn3)c3ccccc3)cc2)cc1)c1ccccc1)c1ccccn1.[Fe+2].[Fe+2] (stereo not shown) [5d]
		0.63 ± 0.04 µM and 0.64 ± 0.05 µM		0.87 ± 0.06 µM and 0.89 ± 0.02 µM	C(=NC(COCc1ccc2oc3ccc(COCC(N=Cc4ccccn4)c4ccccc4)cc3c2c1)c1ccccc1)c1ccccn1.C(=NC(COCc1ccc2oc3ccc(COCC(N=Cc4ccccn4)c4ccccc4)cc3c2c1)c1ccccc1)c1ccccn1.C(=NC(COCc1ccc2oc3ccc(COCC(N=Cc4ccccn4)c4ccccc4)cc3c2c1)c1ccccc1)c1ccccn1.[Fe+2].[Fe+2] (stereo not shown) [5h]
		0.68 ± 0.03 µM and 0.66 ± 0.02 µM		0.91 ± 0.04 µM and 0.93 ± 0.03 µM	C(=NC(COCc1ccc(Sc2ccc(COCC(N=Cc3ccccn3)c3ccccc3)cc2)cc1)c1ccccc1)c1ccccn1.C(=NC(COCc1ccc(Sc2ccc(COCC(N=Cc3ccccn3)c3ccccc3)cc2)cc1)c1ccccc1)c1ccccn1.C(=NC(COCc1ccc(Sc2ccc(COCC(N=Cc3ccccn3)c3ccccc3)cc2)cc1)c1ccccc1)c1ccccn1.[Fe+2].[Fe+2] (stereo not shown) [5e]
		0.51 ± 0.03 µM and 0.57 ± 0.05 µM		0.78 ± 0.04 µM and 0.77 ± 0.05 µM	C(=NC(COCc1ccc(CCc2ccc(COCC(N=Cc3ccccn3)c3ccccc3)cc2)cc1)c1ccccc1)c1ccccn1.C(=NC(COCc1ccc(CCc2ccc(COCC(N=Cc3ccccn3)c3ccccc3)cc2)cc1)c1ccccc1)c1ccccn1.C(=NC(COCc1ccc(CCc2ccc(COCC(N=Cc3ccccn3)c3ccccc3)cc2)cc1)c1ccccc1)c1ccccn1.[Fe+2].[Fe+2] (stereo not shown) [5g]
